Laboratory results: patent US20060183119A1, “Method for determining predisposition to a physiological reaction in a patient” (UNIVERSITE LAVAL, priority 2002, published 2006)
Where “and” joins values, the source holds several entries; their conditions need not be identical. Equal entries are not always repeated. Where two headings read alike, the source gives them in different places.

Columns and labels:
human UGT1A9*1 = target: T1, human UGT1A9*1 (Homo sapiens, UniProt O60656); conditions: SN-38 glucuronidation
T1 sequence (O60656 26-530): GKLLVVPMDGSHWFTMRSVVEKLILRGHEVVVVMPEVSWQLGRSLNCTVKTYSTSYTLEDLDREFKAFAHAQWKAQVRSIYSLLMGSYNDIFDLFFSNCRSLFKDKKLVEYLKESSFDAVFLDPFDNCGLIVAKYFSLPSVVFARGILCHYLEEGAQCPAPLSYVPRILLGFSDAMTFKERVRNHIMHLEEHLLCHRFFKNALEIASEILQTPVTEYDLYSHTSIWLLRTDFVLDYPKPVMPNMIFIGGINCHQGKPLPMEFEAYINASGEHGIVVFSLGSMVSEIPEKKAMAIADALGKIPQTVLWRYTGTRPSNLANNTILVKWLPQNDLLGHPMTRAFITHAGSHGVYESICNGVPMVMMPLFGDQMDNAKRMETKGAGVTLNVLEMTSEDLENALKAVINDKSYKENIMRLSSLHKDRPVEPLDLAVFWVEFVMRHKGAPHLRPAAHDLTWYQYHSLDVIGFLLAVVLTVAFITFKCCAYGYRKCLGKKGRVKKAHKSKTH
Description: Microsomal fractions from HEK-293 cells stably expressing human UGT1A9*1, UGT1A9*2 and UGT1A9*3 were used in enzymatic assays. Reactions (100 μl volume) contained 50 mM Tris-HCl, pH 7.3, 10 mM MgCl2, 100 μg/mL phosphatidylcholine, 1 mM UDP-glucuronic acid, 40 to 60 μg of membrane protein. […] Human liver microsome were incubated in the same condition for control. Reaction was stopped by the addition of 200 μL MeOH+1% HCl 2N, followed by centrifugation at 14000 rpm for 10 minutes. Supernatant was filtered through a 0.22 μm filter and 100 μL of water was added. For SN-38 and SN-38-glucuronide detection, 10 μL samples were injected on a liquid chromatographic system coupled to a fluorescence detector. Time-course experiments were realized to determine the linearity of the glucuronidation reaction.
A liquid chromatographic method was developed to quantify SN-38 glucuronidation of UGT cell line-derived microsomes and human liver microsomes. Samples were analyzed using high performance liquid chromatography (Alliance 2695, Waters, Milford, Mass.). […] At a constant flow rate (0.7 ml/min), a linear gradient from 20 to 65% B was run over 3 min, held 0.8 min and a second gradient until 95% of B was run over 2 min and then re-equilibrated to 20% B over 2 min. The effluent from the HPLC system (Alliance 2695) was connected directly to a fluorescence detector (Waters, Milford, Mass.) using an excitation wavelength of […] and an emission of 460 nm. […] Determination of the glucuronidation rates obtained with other substrates was performed as currently known in the art.
Microsomal fractions from HEK293 (40 to 60 μg) were added to a reaction mixture (100 μL) containing 50 mM Tris-HCl, pH 7.3, 10 mM MgCl2, 100 μg/mL phosphatidylcholine and 2 mM UDP-glucuronic acid. […] Commercially available human liver microsomes (Human Cell Culture Center Inc., Laurel, Md.) were incubated in the same conditions for all experiments. Time-course experiments were performed to determine the linearity of the glucuronidation reaction. For the determination of Vmax and Km. HEK293 cells stably expressing UGT1A9 enzymes were incubated in the presence of various concentrations of SN-38 ranging from 0.1 to 200 μM and incubated for 30 min as described above whereas UGT1A7 membranes preparations were incubated for 3 hours. […] For the detection of SN-38 and its glucuronide (SN-38G), 10 μL samples were injected in a liquid chromatographic system (HPLC) coupled to fluorescence detector as described below.
A HPLC method was developed to quantify the rates of SN-38 glucuronidation from the various microsomal fractions under study. […] The column was connected to a fluorescence detector model 474 (Waters, Milford, Mass.) and the molecules were excited at a wavelength of 370 nm and an emission of 425 nm.

UGT1A7*2 = target: T2, UGT1A7*2 (Homo sapiens, UniProt Q9HAW7, N129K/R131K); assay: SN-38 glucuronidation by microsomes of HEK293 cells expressing UGT1A7*2; assay type: in vitro ADME; design: key to Function (SN-38G formation versus *1 allele): High: no significant difference in activity compared to *1 allele.; Low: significantly lower SN-38G formation versus *1 allele
T2 construct: expressed in transfected cells
T2 sequence (Q9HAW7 26-530 N129K/R131K): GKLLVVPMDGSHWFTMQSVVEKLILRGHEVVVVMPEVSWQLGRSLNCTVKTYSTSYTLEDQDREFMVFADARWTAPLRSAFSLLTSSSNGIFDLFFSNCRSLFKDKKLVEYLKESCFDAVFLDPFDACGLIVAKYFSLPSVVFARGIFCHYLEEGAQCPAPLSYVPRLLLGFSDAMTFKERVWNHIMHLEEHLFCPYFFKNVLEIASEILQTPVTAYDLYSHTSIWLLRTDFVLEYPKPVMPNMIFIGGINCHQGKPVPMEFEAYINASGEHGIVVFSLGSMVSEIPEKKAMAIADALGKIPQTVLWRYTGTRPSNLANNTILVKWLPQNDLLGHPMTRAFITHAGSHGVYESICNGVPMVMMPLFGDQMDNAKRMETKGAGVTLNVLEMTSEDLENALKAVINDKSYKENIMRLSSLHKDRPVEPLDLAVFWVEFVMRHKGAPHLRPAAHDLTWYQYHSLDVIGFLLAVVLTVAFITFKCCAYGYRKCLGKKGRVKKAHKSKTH
Description: Western blot analyses of UGT1A7 and UGT1A9 variants expressed in HEK293 cells were performed on microsomal proteins (10 μg) separated on a 10% SDS-polyacrylamide gel. After transferring the proteins, the membranes were probed with an anti-UGT1A RC-71 polyclonal antibody and with an anti-calnexin antibody. The relative levels of UGT1A9 (a) and UGT1A7 proteins (b) were determined by semi-quantitative densitometric analysis of the Enhanced chemiluminescence (ECL) image. The in vitro SN-38 activity was assessed using microsomal fractions prepared from HEK293 cells expressing the *1 and variant UGT1A9 (c) and UGT1A7 (d) alleles and incubated with 5 μM of SN-38 as described in Materials and Methods.
For the determination of Vmax and Km.

Structure (SMILES): CCc1c2c(nc3ccc(O)cc13)-c1cc3c(c(=O)n1C2)COC(=O)[C@]3(O)CC [SN-38, 7-ethyl-10-hydroxycamptothecin]
- Vmax (human UGT1A9*1; 0.1 to 200 μM, mean±SD): 316.34±52.03 pmol/min/mg protein
- Km (human UGT1A9*1; Table 5): 3.03 ± 0.72 µM
- Vmax (human UGT1A9*1; Table 5): 316.34 ± 52.03
- Km (human UGT1A9*1; read-out: Apparent Km, 0.1 to 200 μM, mean±SD, Lineweaver-Burk): 3.03 µM and 3.02 µM
- SN-38 glucuronidating activity of the allele (in words) (UGT1A7*2): highest
- Function (SN-38G formation versus *1 allele) (UGT1A7*2; in vitro experiments): High
